IC50 data for 21 molecules are collected here from US20240391882A1 (Mirati Therapeutics, Inc., priority 2023, published 2024).

Experiment [1] deals with T47D (PI3Kα H1047R mutant) cells. The experiment in a line: Cell viability (CellTiter-Glo 2.0) in T47D cells. It counts as cell-based. The conditions noted are these: Homo sapiens, T47D, 72 h, approximately 72 hours. The protocol:
This Example illustrates that representative compounds of the invention decrease the viability of cells.
The ability of a compound of Formula (I) to decrease the viability of cells was measured using CellTiter-Glo 2.0 (CTG) Luminescent Cell Viability Assay (#G9241) obtained from Promega (Madison, WI).
To prepare assay plates for viability assays, cells were trypsinized, resuspended in fresh media, and viable cells were counted utilizing trypan blue exclusion. T47D, SKBR3, or MKN1 cells were seeded at 1000 cells in 30 μl per well in a solid white flat bottom 384 cell culture plate (Perkin Elmer #6007680) and incubated at 37° C. overnight.
Assay day 1, cells were dosed using an Echo Liquid Handler (Beckman Coulter) with compounds at a 10 μm starting concentration and serially diluted (1:4) for a total of 10 concentrations. Cells were incubated for approximately 72 hours with the compounds (solubilized in DMSO) at 37° C. After 72 hours of treatment, cell plates were equilibrated to room temperature before adding 15 μl of CTG to each well, plates were then covered in aluminum foil to protect from light, incubated at room temperature for 30 minutes on a microtiter plate shaker, and luminescence readings were collected using a CLARIOstar microplate reader (BMG Labtech, Germany). Percent of vehicle control values were plotted as log(inhibitor) vs. response—Variable slope (four parameters) for curve fitting and IC50 values were determined using XLfit.
On the technique in general: ATP-based viability assays read luminescence as a measure of living cells.

For experiment [2], the system named is pAKT in T47D (PI3Kα H1047R mutant) cells. The experiment in a line: Inhibition of pAKT (alphaLISA Surefire Ultra AKT 1/2/3 pS473) in T47D cells. In kind it is cell-based. Particulars: Homo sapiens; T47D (PI3Kα H1047R mutant) cells, 24 hr compound incubation, alphaLISA pS473; read-out: T47D (H1047R) pAKT 24 hr (IC50). The protocol: The ability of a compound of Formula (I) to inhibit the formation of pAKT was measured using alphaLISA Surefire Ultra AKT 1/2/3 (pS473) Assay Kit (#ALSU-PAKT-B50K) was obtained from Perkin Elmer (Waltham, MA).
To prepare assay plates for pAKT alphaLISA assays, cells were trypsinized, resuspended in fresh media, and viable cells were counted utilizing trypan blue exclusion. Prior to seeding, cells were washed with PBS and resuspended in HBSS (Gibco, #14025092). T47D (12,000/w), SKBR3 (12,000/w), or MKN1 (24,000/w) cells were seeded at 12 μl per well in a solid white flat bottom 384 cell culture plate (Perkin Elmer #6007680).
Immediately after seeding, cells were dosed using an Echo Liquid Handler (Beckman Coulter) with compounds at a 10.4 μm starting concentration and serially diluted (1:4) for a total of 10 concentrations. 14 vehicle (DMSO) and 14 positive control (Alpelisib @3.125 μm) wells were included on each assay plate. Cells were incubated with the compounds (solubilized in DMSO) for approximately 24 hours at 37° C. After 24 hours of treatment, cells were lysed with 3 μl of the 5× lysis buffer (provided and incubated at room temperature for 15 min on a microtiter plate shaker). Once cells were sufficiently lysed, 7.5 μl of the acceptor bead mix (made using the manufacturers recommended dilutions) was added to each well and left on the microtiter plate shaker for 1 min prior to incubating plates at room temperature for 1 hour, in the absence of light. After 1 hour of incubation with the acceptor bead mix, 7.5 μl of the donor bead mix (made using the manufacturers recommended dilutions) was added to each well and left on the microtiter plate shaker for 1 min prior to incubating plates at room temperature overnight in the absence of light. Plates were then imaged the following day using a CLARIOstar microplate reader (BMG Labtech, Germany).
Percent of control values were calculated by subtracting the average signal from the positive control (alpelisib) treated wells from all treated wells (including DMSO control wells) and then divided by the average signal from the vehicle DMSO treated control wells. Percent of vehicle control values were plotted as log(inhibitor) vs. response—Variable slope (four parameters) for curve fitting and IC50 values were determined using XLfit.
(In Alpha technology, singlet oxygen from a donor bead excites a nearby acceptor bead.)

For the molecule `Cc1cc([C@@H](C)Nc2ccc(Cl)nc2C(=O)O)c2nc(N3CC(C)(C)C(F)(F)C3)c(C#N)nc2c1` [Example 123, (R)-6-chloro-3-((1-(2-cyano-3-(3,3-difluoro-4,4-dimethylpyrrolidin-1-yl)-7-methylquinoxalin-5-yl)ethyl)amino)picolinic acid], the 50% inhibitory concentration (IC50) (as a rule, the concentration that gives 50% inhibition) came to 273 nM in experiment [1] and 66.8 nM in experiment [2]. The matching figures for `Cc1cc([C@@H](C)Nc2ccccc2C(=O)O)c2nc(N3CC(F)(F)C3)c(C#N)nc2c1` [Example 127, (R)-2-((1-(2-cyano-3-(3,3-difluoroazetidin-1-yl)-7-methylquinoxalin-5-yl)ethyl)amino)benzoic acid]: 296 nM and 8.4 nM. `COC(=O)c1nc(Cl)ccc1N[C@H](C)c1cc(C)cc2nc(C#N)c(N3CC[C@@](C)(F)C3)nc12` (single isomer, unassigned) [Example 180]: the figures for the IC50 in experiment [1] and in experiment [2] were 57.8 nM and 1.6 nM, respectively. The matching figures for `Cc1cc([C@@H](C)Nc2ccc(Cl)nc2C(=O)O)c2nc(N3C[C@@H]4C[C@H]3CO4)c(C#N)nc2c1` [Example 173, 3-(((R)-1-(3-((1S,4S)-2-oxa-5-azabicyclo[2.2.1]heptan-5-yl)-2-cyano-7-methylquinoxalin-5-yl)ethyl)amino)-6-chloropicolinic acid]: 26.8 nM and 0.3 nM. On to `Cc1cc([C@@H](C)Nc2ccc(Cl)nc2C(=O)O)c2nc(N3CCN(c4ccc(C(F)(F)F)nc4)CC3)c(C#N)nc2c1` [Example 133, (R)-6-chloro-3-((1-(2-cyano-7-methyl-3-(4-(6-(trifluoromethyl)pyridin-3-yl)piperazin-1-yl)quinoxalin-5-yl)ethyl)amino)picolinic acid], for which the IC50 in experiment [2] was found to be 0.8 nM. Regarding `Cc1cc([C@@H](C)Nc2ccc(Cl)nc2C(=O)O)c2nc(N3CCC(=O)CC3)c(C#N)nc2c1` [Example 161, (R)-6-chloro-3-((1-(2-cyano-7-methyl-3-(4-oxopiperidin-1-yl)quinoxalin-5-yl)ethyl)amino)picolinic acid], the figures for the concentration for half-maximal inhibition (IC50) in experiment [1] and in experiment [2] were 47.6 nM and 4.6 nM, respectively. Consider `Cc1cc([C@@H](C)Nc2ccc(Cl)nc2C(=O)O)c2nc(N3CCN(c4ncc(C)s4)CC3)c(C#N)nc2c1` [Example 115, (R)-6-chloro-3-((1-(2-cyano-7-methyl-3-(4-(5-methylthiazol-2-yl)piperazin-1-yl)quinoxalin-5-yl)ethyl)amino)picolinic acid], for which the concentration for half-maximal inhibition (IC50) stood at 31.3 nM in experiment [1] and 1 nM in experiment [2]. Taken in the same sequence, the figures for `Cc1cc([C@@H](C)Nc2ccc(Cl)nc2C(=O)O)c2nc(N(C)CCC(=O)N(C)C)c(C#N)nc2c1` [Example 114, (R)-6-chloro-3-((1-(2-cyano-3-((3-(dimethylamino)-3-oxopropyl)(methyl)amino)-7-methylquinoxalin-5-yl)ethyl)amino)picolinic acid] were 190 nM and 11 nM. As to `CC(=O)N1CCN(c2nc3c([C@@H](C)Nc4ccc(Cl)nc4C(=O)O)cc(C)cc3nc2C#N)CC1` [Example 160, (R)-3-((1-(3-(4-acetylpiperazin-1-yl)-2-cyano-7-methylquinoxalin-5-yl)ethyl)amino)-6-chloropicolinic acid], the half-maximal inhibitory concentration (IC50) in experiment [1] amounted to 85.8 nM; in experiment [2] it was 4.6 nM. Taken in the same sequence, the figures for `Cc1cc([C@@H](C)Nc2ccc(Cl)nc2C(=O)O)c2nc(N3C[C@@H](F)[C@@H](F)C3)c(C#N)nc2c1` [Example 122, 6-chloro-3-(((R)-1-(2-cyano-3-((3S,4R)-3,4-difluoropyrrolidin-1-yl)-7-methylquinoxalin-5-yl)ethyl)amino)picolinic acid] were 33.8 nM and 1.3 nM. `Cc1cc([C@@H](C)Nc2ccc(Cl)nc2C(=O)O)c2nc(N3CCC(n4cccn4)CC3)c(C#N)nc2c1` [Example 136, (R)-3-((1-(3-(4-(1H-pyrazol-1-yl)piperidin-1-yl)-2-cyano-7-methylquinoxalin-5-yl)ethyl)amino)-6-chloropicolinic acid]: in experiment [2], the 50% inhibitory concentration (IC50) amounted to 0.7 nM. For the molecule `Cc1cc([C@@H](C)Nc2ccc(Cl)nc2C(=O)O)c2nc(N3CC(F)(F)C3)c(C#N)nc2c1` [Example 128, (R)-6-chloro-3-((1-(2-cyano-3-(3,3-difluoroazetidin-1-yl)-7-methylquinoxalin-5-yl)ethyl)amino)picolinic acid], the results for the concentration for half-maximal inhibition (IC50) in experiment [1] and in experiment [2] were 121 nM and 1.4 nM, respectively. The matching figures for `Cc1cc([C@@H](C)Nc2ccc(Cl)nc2C(=O)O)c2nc(N3CC(F)(F)C4(CC4)C3)c(C#N)nc2c1` [Example 116, (R)-6-chloro-3-((1-(2-cyano-3-(7,7-difluoro-5-azaspiro[2.4]heptan-5-yl)-7-methylquinoxalin-5-yl)ethyl)amino)picolinic acid]: 202 nM and 15 nM. Take `Cc1cc([C@@H](C)Nc2ccc(Cl)nc2C(=O)O)c2nc(N3CCC(n4cc(C)cn4)CC3)c(C#N)nc2c1` [Example 138, (R)-6-chloro-3-((1-(2-cyano-7-methyl-3-(4-(4-methyl-1H-pyrazol-1-yl)piperidin-1-yl)quinoxalin-5-yl)ethyl)amino)picolinic acid]: the IC50 in experiment [2] came out at 0.8 nM. For `Cc1cc([C@@H](C)Nc2ccc(Cl)nc2C(=O)O)c2nc(NCC3COC3)c(C#N)nc2c1` [Example 135, (R)-6-chloro-3-((1-(2-cyano-7-methyl-3-((oxetan-3-ylmethyl)amino)quinoxalin-5-yl)ethyl)amino)picolinic acid], the IC50 in experiment [2] was 19.2 nM. Take `CC(=O)N(C)C1CCN(c2nc3c([C@@H](C)Nc4ccc(Cl)nc4C(=O)O)cc(C)cc3nc2C#N)CC1` [Example 137, (R)-6-chloro-3-((1-(2-cyano-7-methyl-3-(4-(N-methylacetamido)piperidin-1-yl)quinoxalin-5-yl)ethyl)amino)picolinic acid]: in experiment [2], the IC50 was 1.3 nM. Still for that read-out and setting: for `COCCNc1nc2c([C@@H](C)Nc3ccc(Cl)nc3C(=O)O)cc(C)cc2nc1C#N` [Example 132, (R)-6-chloro-3-((1-(2-cyano-3-((2-methoxyethyl)amino)-7-methylquinoxalin-5-yl)ethyl)amino)picolinic acid] the value was 0.9 nM. On the same count and under the same terms, with `Cc1cc([C@@H](C)Nc2ccc(Cl)nc2C(=O)O)c2nc(N3CC(C(F)(F)F)C3)c(C#N)nc2c1` [Example 131, (R)-6-chloro-3-((1-(2-cyano-7-methyl-3-(3-(trifluoromethyl)azetidin-1-yl)quinoxalin-5-yl)ethyl)amino)picolinic acid] the figure was 2.2 nM; with `Cc1cc([C@@H](C)Nc2ccc(Cl)nc2C(=O)O)c2nc(N3CCC(n4cc(C(F)(F)F)cn4)CC3)c(C#N)nc2c1` [Example 139, (R)-6-chloro-3-((1-(2-cyano-7-methyl-3-(4-(4-(trifluoromethyl)-1H-pyrazol-1-yl)piperidin-1-yl)quinoxalin-5-yl)ethyl)amino)picolinic acid], 2.1 nM; with `Cc1cc([C@@H](C)Nc2ccc(Cl)nc2C(=O)O)c2nc(N3CCc4cc(C#N)ccc4C3)c(C#N)nc2c1` [Example 85, (R)-6-chloro-3-((1-(2-cyano-3-(6-cyano-3,4-dihydroisoquinolin-2(1H)-yl)-7-methylquinoxalin-5-yl)ethyl)amino)picolinic acid], 2 nM. On the same count and under the same terms, for `Cc1cc([C@@H](C)Nc2ccccc2C(=O)O)c2nc(N3CC4(CCO4)C3)c(C#N)nc2c1` [Example 134, (R)-2-((1-(2-cyano-7-methyl-3-(1-oxa-6-azaspiro[3.3]heptan-6-yl)quinoxalin-5-yl)ethyl)amino)benzoic acid] the value was 10.9 nM.
